“Also recorded” adds a separate entry of the source.

Experimental findings from US11654126B2, “Method of inhibiting the proliferation of T and/or B lymphocytes via dimethylarginine derivatives and lymphocytes proliferation inhibitor” (GUANGZHOU MEDICAL UNIVERSITY, priority 2019, dated 2023) are described below.

Experiment [1] deals with human T cells. In words: Human T cell in vitro proliferation assay (anti-CD3/anti-CD28, CellTrace Violet). Format: cell-based. The following applies: 1 μM; for proliferation of human T cells: P<0.001; for number of divided T cells: human T cells, after 4 days of culture, FIG. 2. An excerpt:
Human T cell isolation and in vitro proliferation experiments: the use of blood from healthy adult blood donors was approved by the Ethics Committee of the Medical Faculty of Guangzhou Medical University, Guangzhou, China. Peripheral blood mononuclear cells (PBMCs) were isolated using Sepmate PBMC isolation tubes following the manufacturer's instructions (StemCell). CD3^+ human T cells were positively isolated by magnetic cell sorting (Miltenyi Biotec, Bergisch-Gladbach, Germany). Purified T cells were labeled with the proliferation dye CellTrace Violet according to the manufacturer's protocol. Then the cells (1×10^5 cells per well in flat bottom 96 well plate) were stimulated in vitro with immobilized anti-CD3 (5 μg/ml) and anti-CD28 (2 μg/ml) antibody (Biolegend, San Diego, USA), and expanded in RPMI1640 medium up to 5 days. Dilution of CellTrace Violet, indicating proliferation, was then evaluated by flow cytometry.

A further experiment concerns mouse B cells. As to the kind of experiment: Mouse B cell proliferation assay (splenocytes, IL-4 + anti-IgM, CellTrace Violet). Format: cell-based. The following applies: 5 μM; for B cells proliferation: P<0.01; for number of live B cells / number of divided B cells: after 4 days; for number of live B cells: FIG. 3A; for number of divided B cells: FIG. 3B. How it is done:
Spleens were harvested, mechanically disrupted, and resuspend in RPMI 1640 complete medium (10% FBS).
Total splenocytes were then labeled with the proliferation dye CellTrace Violet according to the manufacturer's protocol. Then splenocytes (1×10^5 cells per well in flat bottom 96 well plate) were stimulated with recombinant human IL-4 ([…] and α-mouse IgM (10 μg/ml), and expanded in RPMI1640 medium up to 5 days. Dilution of CellTrace Violet was then evaluated by flow cytometry. (Note; splenocytes contain T cells and monocytes, which will die off during the assay period.)
Experimental group: ADMA or SDMA (5 μM) was added (ADMA and SDMA dissolved in sterile endotoxin-free water, the storage solution concentration is 0.5 mM). Control group: the same volume of sterile endotoxin-free water without ADMA or SDMA was added.

In experiment [2] the test system is mouse T cells. In words: ROS generation in T cells (CellROX Green, flow cytometry). Format: cell-based. How it is done: For flow cytometry, T cells were stained with 5 μM CellROX Green Reagent (Life Technologies) for 30 min at 37° C. in the presence or absence of ADMA or SDMA (5 μM), and then washed with 1×PBS once. MitoQ (100 nM) was added with ADMA and SDMA. Cells were resuspended in 300 μl of PBS before the analysis by flow cytometry.
Experimental Groups: ADMA alone, SDMA alone, or ADMA/SDMA (ADMA/SDMA represents the mixture of ADMA and SDMA herein) was used at the final concentration of 1 μM, MitoQ was used either at 10 nM or 100 nM.
In general terms: A flow cytometer gives signals particle by particle.

For experiment [3], the system named is mouse T cells. As to the kind of experiment: Mouse T cell proliferation assay (anti-CD3/CD28 beads, CellTrace Violet, flow cytometry). Format: cell-based. The following applies: 1 μM and 5 μM; for survival rate of cells / number of divided T cells: 3 days of stimulation, vs control group; for survival rate of cells: FIG. 1A; for number of divided T cells: FIG. 1B; for proliferation of mouse T cells: P<0.001. The method, then: Total splenic T cells were isolated by StemCell isolation kit: From female 6-8 weeks old C57BL mice, spleens were harvested, mechanically disrupted, and incubated with a biotinylated antibody cocktail consisting of antibodies to B220, CD11b, CD11c, CD16/32, CD19, CD25, CD105, NK1.1, and TCRγδ (StemCell). After a wash step, cells were incubated with streptavidin-coated magnetic nanoparticles (StemCell). CD3^+ cells were then isolated by applying a magnetic field and collecting the unbound cells.
The total T cells obtained in step 1 were labeled with the proliferation indicator dye CellTrace Violet according to the manufacturer's protocol, and then seeded in 96-well round bottom cell culture plates at 2×10^5 per well, next the cells were stimulated with anti-CD3 and anti-CD28 antibody coated magnetic beads (Gibco Dynabeads mouse T-activator CD3/CD28 for T-cell expansion and activation) with the beads to cells ratio of 1:4, and then expanded in RPMI-1640 medium up to 4 days, and dilution of CellTrace Violet was then evaluated by flow cytometry.
Experimental group: different concentrations of ADMA or SDMA were added (ADMA and SDMA dissolved in sterile endotoxin-free water, and the concentration of the storage solution is 0.5 mM); Control group: the same volume of sterile endotoxin-free water was added without ADMA or SDMA.

Another experiment concerns activated human T cells. In words: Proliferation of activated human T cells (compound added 24 h after anti-CD3/CD28 stimulation). Format: cell-based. The following applies: ADMA 1 μM; for inhibitory effect compared with other substances / number of live cells / T cell proliferation: PD404182 100 nM; for inhibitory effect compared with other substances / number of live cells: rapamycin 50 nM; for number of live cells: 24 h and 48 h after addition, vs control, FIG. 5A, 5B; for T cell proliferation: activated human T cells. How it is done:
Human T cells were stimulated with anti-human CD3 and CD28 for 24 hours. […] Flow cytometry was used to analyze the number of live cells and the number of divided cells. The results are shown in FIG. 5A and FIG. 5B, respectively.

The next experiment relates to mouse splenic T cells. As to the kind of experiment: DMGV-induced ROS in mouse T cells (flow cytometry). The format is cell-based. The following applies: 1 h, FIG. 6A. The method, then:
(§1) DMGV was synthesized as described in the literature (for specific preparation procedures, refer to J. Mass Spectrom. 2012, 47, 1594; Anal. Biochem. 2011, 419, 234). Mouse and human T cells were treated with none, or DMGV (10 μM), or DMGV+MitoQ (100 nM) for 1 h and ROS was measured by flow cytometry. The results are shown in FIG. 6A and FIG. 6B, respectively.

Experiment [4] relates to human T cells. As to the kind of experiment: DMGV human T cell proliferation (anti-CD3/anti-CD28 activation). The format is cell-based. The following applies: 3 days, FIG. 6D. The method, then:
(§2) Mouse or human T cells were activated by anti-CD3 and anti-28 antibodies with none, DMGV (10 μM), or DMGV+MitoQ (100 nM) for 3 days and proliferation was measured by flow cytometry. The results are shown in FIG. 6C and FIG. 6D, respectively.

The test system of the next experiment is T cells. As to the kind of experiment: Effect of MitoQ on T cell proliferation in vitro with ADMA/SDMA. The following applies: MitoQ 100 nM + ADMA/SDMA 1 μM vs ADMA/SDMA group; 3 days; FIG. 4D. The format is cell-based, mouse. How it is done: After incubating MitoQ and ADMA/SDMA together with T cells up to 3 days, flow cytometry was used to investigate the effect on the T cells proliferation in vitro.
Experimental groups: Control, ADMA/SDMA (1 μM), and ADMA/SDMA (1 μM)+MitoQ (100 nM).

Another experiment deals with human peripheral T cells. As to the kind of experiment: DMGV-induced ROS in human T cells (flow cytometry). Format: cell-based. The following applies: 1 h, FIG. 6B. The method, then:
as §1

In experiment [5] the test system is mouse T cells. In words: DMGV mouse T cell proliferation (anti-CD3/anti-CD28 activation). Format: cell-based. The following applies: 3 days, FIG. 6C. How it is done: as §2
In another experiment the test system is SKG mice arthritis. In words: Arthritis in beta-glucan injected SKG mice. The format is in vivo. The following applies: SKG mice with score 8 or above; DMGV 750 μg/mouse in the peritoneum up to 50 days; N=7, P=0.0006 (2-way ANOVA); FIG. 7. The method, then: SKG mice (purchased from CLEA Japan, Inc.) develop arthritis because a mutation in the ZAP-70 gene, which causes activation of T cells. SKG mice were injected with beta-glucan (30 mg/mouse, Sigma) to accelerate development of arthritis and the arthritis score was calculated as described in the literature (for specific preparation procedures, refer to Yoshitomi, H, J. Exp Med. 2005). Mice that reached the arthritis score of 8 or above in less than 2 months were selected and treated with DMGV (750 μg/mouse) twice a week up to 50 days.

The mark [6] stands for this setting: ADMA or SDMA alone vs none, 2 hours, FIG. 4A.

Regarding `CN(C)C(N)=NCCC[C@H](N)C(=O)O` [ADMA, asymmetric dimethylarginine], in the experiment with human T cells [1], the “proliferation of human T cells” value is reported as “inhibit proliferation of human T cells significantly” and the “number of divided T cells” value is “reduced the number of divided T cells”. Further, in the experiment on mouse B cells, the B cells proliferation entry is given as “significantly inhibit B cells proliferation”; the “number of live B cells” value was “reduced the number of live”; the “number of divided B cells” value was “reduced the number of live (FIG. 3A) and divided B cells”. The ROS result in the experiment on mouse T cells [2] (setting [6]) is “ROS was significantly induced”. Further, in the experiment on mouse T cells [3], the “survival rate of cells” value is “reduced the survival rate of cells”, the “number of divided T cells” value is “resulted in the reduction of the number of divided T cells” and the “proliferation of mouse T cells” value is listed as “significantly inhibit the proliferation of mouse T cells”. Also, in the experiment with activated human T cells, the “inhibitory effect compared with other substances” value is listed as “better than PD404182; also recorded: superior to the mTOR inhibitor rapamycin”, the “number of live cells” value was “the number of live cells declined” and the T cell proliferation result is recorded as “can inhibit T cell proliferation”. Also, the “number of divided cells of T cells” value in the experiment with activated human T cells (vs control or rapamycin group) is reported as “decreased significantly”.

Turning to `COC1=C(OC)C(=O)C(CCCCCCCCCC[P+](c2ccccc2)(c2ccccc2)c2ccccc2)=C(C)C1=O` [MitoQ, reference compound], the “effect on DMGV-induced ROS” value with mouse splenic T cells (DMGV 10 μM plus MitoQ 100 nM) and in the experiment on human peripheral T cells (DMGV 10 μM plus MitoQ 100 nM) was “inhibited by MitoQ” in each case. The ROS result in the experiment on mouse T cells [2] (MitoQ (100 nM) with ADMA/SDMA vs ADMA/SDMA alone, FIG. 4B) is listed as “decreased significantly”. In the experiment with human T cells [4] (DMGV 10 μM plus MitoQ 100 nM), the “effect on inhibition of proliferation by DMGV” value was “inhibited by MitoQ”. In addition, in the experiment on T cells, the “effect on inhibition of T cells proliferation by ADMA/SDMA” value was “significantly prevent the inhibitory effect of ADMA and SDMA on T cells proliferation”.

Turning to `N=C1Sc2ccccc2C2=NCCCN12` [PD404182, reference compound], in the experiment with activated human T cells, the “inhibitory effect compared with other substances” value was “superior to the mTOR inhibitor rapamycin”, the “number of live cells” value is recorded as “the number of live cells declined” and the T cell proliferation result is given as “can inhibit T cell proliferation”.

For `CN=C(NC)NCCC[C@H](N)C(=O)O` [SDMA, symmetric dimethylarginine], in the experiment with human T cells [1], the “proliferation of human T cells” value is recorded as “inhibit proliferation of human T cells significantly” and the “number of divided T cells” value is “reduced the number of divided T cells”. For the same compound, in the experiment on mouse B cells, the B cells proliferation result is on record as “significantly inhibit B cells proliferation”; the “number of live B cells” value is “reduced the number of live”; the “number of divided B cells” value was “reduced the number of live (FIG. 3A) and divided B cells”. For the same compound, the ROS result in the experiment with mouse T cells [2] (setting [6]) is “ROS was significantly induced”. Further, in the experiment on mouse T cells [3], the “survival rate of cells” value is “reduced the survival rate of cells”, the “number of divided T cells” value is on record as “resulted in the reduction of the number of divided T cells” and the “proliferation of mouse T cells” value is “significantly inhibit the proliferation of mouse T cells”.

Consider dimethylguanidino valeric acid [DMGV], for which the ROS entry in the experiment with mouse splenic T cells (DMGV 10 μM) and with human peripheral T cells (DMGV 10 μM) was “induces ROS” in each case. Moreover, the proliferation entry in the experiment with mouse T cells [5] and in the experiment with human T cells [4] (DMGV 10 μM) was “inhibited proliferation” throughout. Also, in the experiment with SKG mice arthritis, the arthritis score result was “significantly decreased the arthritis score in all mice”.
